Measured values reported in US9527807B2, “Sulfonamide derivative and use thereof” (Takeda Pharmaceutical Company Limited, priority 2011, dated 2016).

Molecular target: T1, AMPA receptor (human GluR1 flip/stargazin expressed in CHO-K1 cells) (Homo sapiens, UniProt P42261)
T1 construct: expressed in transfected cells; host or cells: CHO-K1
Assay: AMPA receptor function enhancing activity using calcium influx as index
Format: cell-based
Details: change in fluorescence level in 3 min, 100% = 3 mM glutamic acid + 300 μM cyclothiazide, 0% = 3 mM glutamic acid only
Description: Human GluR1 flip cDNA was amplified by PCR using forward primer […] (SEQ ID NO: 1) and reverse primer […] (SEQ ID NO: 2) artificially synthesized using human brain-derived cDNA (BD Bio science) as a template. The amplified product was digested with restriction enzymes EcoRI, NotI (TAKARA SHUZO CO. LTD.), and incorporated into the same site of pcDNA3.1(+) (Invitrogen) to construct pcDNA3.1(+)/human GluR1 flip gene. Human stargazin cDNA was amplified by PCR using forward primer […] (SEQ ID NO: 3) and reverse primer. […] (SEQ ID NO: 4) artificially synthesized using human hippocampus cDNA as a template. The amplified product was digested with restriction enzymes XhoI, BamHI (TAKARA SHUZO CO. LTD.), and incorporated into the same site of pcDNA3.1(−) (Invitrogen) to construct pcDNA3.1 Zeo(−)/human stargazin gene.
(2) Construction of GluR1 Flip/Stargazin Expressing Cell
CHO-K1 cells passaged in a culture medium (Ham's F12 medium (Invitrogen) added with 10% inactivated fetal bovine serum (Morgate) and penicillin, streptomycin (Invitrogen)) were detached with 0.05% trypsin, 0.53 mM EDTA (Invitrogen) diluted with D-PBS(−). The detached cells were suspended in a culture medium, and recovered by a centrifugation operation at 1,000 rpm. The recovered cells were suspended again in D-PBS(−), and added to a 0.4 cm electroporation cuvette (BioRad). pcDNA3.1(+)/human GluR1 flip gene (5 μg) and pcDNA3.1 Zeo(−)/human stargazin gene (15 μg) were added, and the mixture was introduced into CHO-K1 cells using Gene Pulser II (BioRad) under the conditions of 950 μFd, […]. The introduced cells were cultured overnight in a culture medium and, the next day, plated in a 96 well plate at 250 cells/well using a selection medium (culture medium added with Zeocin (Invitrogen) to 250 μg/mL). Clones showing drug resistance were selected, and GluR1 flip/stargazin expressing clones were selected by an assay method using calcium influx as an index as shown below.
(3) Measurement Method of AMPA Receptor Function Enhancing Activity of Compound Using Calcium Influx as Index
CHO-K1/GluR1 flip/stargazin expressing cells were plated on a 384 well black transparent bottom plate (FMAT4307723) at 0.5×10^4 cells/well, and cultured in a 37° C., CO2 incubator (SANYO Electric Co., Ltd.) for 2 days. The medium in the cell plate was removed, and a calcium indicator (Calcium 4 Assay Kit, Molecular. Devices) containing 1.25 mM probenecid (Invitrogen) was added at 25 μL/well and the well was left standing in 37° C., CO2 incubator for 1 hr. The cell plate was set in FLITRtetra (Molecular Devices), a mixture (12.5 μL) of 9 mM glutamic acid diluted with assay buffer B (HBSS (Invitrogen), 0.1% BSA, 10 mM HEPES) and a test compound was added, and the amount of change in fluorescence level in 3 min was measured. In the definition here, the amount of change in fluorescence level of well added with glutamic acid at final concentration 3 mM and 300 μM cyclothiazide (TOCRIS) is 100%, the amount of change in fluorescence level of well added only with glutamic acid at final concentration 3 mM is 0%, and the compound activity was calculated according to the following formula. activity (%)=(X−C)/(T−C)×100 T: amount of change in fluorescence level of well added with glutamic acid at final concentration 3 mM and 300 μM cyclothiazide C: amount of change in fluorescence level of well added only with glutamic acid at final concentration 3 mM X: amount of change in fluorescence level of well added with to test compound

T1 sequence (P42261 19-906 isoform P42261-2 limits assumed): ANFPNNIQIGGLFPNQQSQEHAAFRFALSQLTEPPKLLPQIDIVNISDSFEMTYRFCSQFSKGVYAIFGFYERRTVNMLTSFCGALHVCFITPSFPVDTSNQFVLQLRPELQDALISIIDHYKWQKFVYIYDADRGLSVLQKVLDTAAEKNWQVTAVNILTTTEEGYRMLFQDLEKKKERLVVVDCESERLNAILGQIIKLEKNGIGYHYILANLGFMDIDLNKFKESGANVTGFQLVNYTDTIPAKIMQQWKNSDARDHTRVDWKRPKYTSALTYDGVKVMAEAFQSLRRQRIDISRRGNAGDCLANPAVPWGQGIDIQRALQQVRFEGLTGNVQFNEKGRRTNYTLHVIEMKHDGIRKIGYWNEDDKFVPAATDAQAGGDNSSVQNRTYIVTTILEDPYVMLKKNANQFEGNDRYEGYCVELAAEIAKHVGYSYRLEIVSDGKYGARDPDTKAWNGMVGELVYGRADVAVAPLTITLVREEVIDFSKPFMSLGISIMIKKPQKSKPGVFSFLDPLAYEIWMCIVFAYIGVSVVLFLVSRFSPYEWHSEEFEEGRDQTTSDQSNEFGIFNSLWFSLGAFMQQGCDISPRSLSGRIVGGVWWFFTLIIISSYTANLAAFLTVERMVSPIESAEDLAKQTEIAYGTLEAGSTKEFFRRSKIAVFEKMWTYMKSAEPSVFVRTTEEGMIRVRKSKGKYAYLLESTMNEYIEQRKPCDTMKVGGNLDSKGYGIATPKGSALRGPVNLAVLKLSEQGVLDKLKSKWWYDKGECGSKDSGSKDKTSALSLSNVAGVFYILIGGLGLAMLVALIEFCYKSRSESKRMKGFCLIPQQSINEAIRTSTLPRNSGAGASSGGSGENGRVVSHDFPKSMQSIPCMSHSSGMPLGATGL
T1 sequence (Q9Y698 whole entry partner): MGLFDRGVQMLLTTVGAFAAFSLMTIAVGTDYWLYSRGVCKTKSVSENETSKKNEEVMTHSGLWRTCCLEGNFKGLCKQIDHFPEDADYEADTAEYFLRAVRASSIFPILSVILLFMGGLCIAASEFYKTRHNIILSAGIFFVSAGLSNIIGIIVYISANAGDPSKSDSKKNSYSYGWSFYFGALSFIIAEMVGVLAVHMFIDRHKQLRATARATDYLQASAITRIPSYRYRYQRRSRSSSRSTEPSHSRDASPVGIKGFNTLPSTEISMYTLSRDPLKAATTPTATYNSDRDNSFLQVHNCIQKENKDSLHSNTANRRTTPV

CC(C)S(=O)(=O)N[C@H]1CCCC[C@@H]1COc1ccc(C2CC2)cc1 (relative stereo) [Example 21, trans-N-{2-[(4-cyclopropylphenoxy)methyl]cyclohexyl}propane-2-sulfonamide]
activity (%): 82%

CCS(=O)(=O)N[C@H]1CCOC[C@@H]1COc1ccc(-c2ncc(Cl)s2)cc1 (racemic) [Example 261, N-[(3RS,4SR)-3-{[4-(5-chloro-1,3-thiazol-2-yl)phenoxy]methyl}tetrahydro-2H-pyran-4-yl]ethanesulfonamide]
activity (%): 92%

CCS(=O)(=O)N[C@H]1CCC(=O)C[C@@H]1COc1ccc(C(C)C)cc1 (relative stereo) [Example 39, trans-N-[2-{[4-(1-methylethyl)phenoxy]methyl}-4-oxocyclohexyl]ethanesulfonamide]
activity (%): 81%

Cc1cc(-c2ccc(OC[C@H]3COCC[C@@H]3NS(C)(=O)=O)cc2)nn1C (racemic) [Example 281, N-[(3RS,4SR)-3-{[4-(1,5-dimethyl-1H-pyrazol-3-yl)phenoxy]methyl}tetrahydro-2H-pyran-4-yl]methanesulfonamide]
activity (%): 64%

Cc1cc(-c2ccc(OC[C@H]3COCC[C@@H]3NS(C)(=O)=O)cc2F)no1 [Example 247, N-[(3R,4S)-3-{[3-fluoro-4-(5-methylisoxazol-3-yl)phenoxy]methyl}tetrahydro-2H-pyran-4-yl]methanesulfonamide]
activity (%): 87%

CCS(=O)(=O)N[C@H]1CCOC[C@@H]1COc1ccc(-n2nccc2C)cc1 (racemic) [Example 431, N-[(3RS,4SR)-3-{[4-(5-methyl-1H-pyrazol-1-yl)phenoxy]methyl}tetrahydro-2H-pyran-4-yl]ethanesulfonamide]
activity (%): 66%

CCS(=O)(=O)N[C@H]1CCCO[C@@H]1COc1ccc(-c2ncc(C)s2)cc1 (racemic) [Example 181, 1,5-anhydro-2,3,4-trideoxy-4-[(ethylsulfonyl)amino]-6-O-[4-(5-methyl-1,3-thiazol-2-yl)phenyl]-DL-erythro-hexitol]
activity (%): 77%

Cc1cnc(-c2ccc(OC[C@H]3OCCC[C@@H]3NS(=O)(=O)C3CC3)cc2)s1 (racemic) [Example 192, 1,5-anhydro-4-[(cyclopropylsulfonyl)amino]-2,3,4-trideoxy-6-O-[4-(5-methyl-1,3-thiazol-2-yl)phenyl]-DL-erythro-hexitol]
activity (%): 74%

O=S(=O)(N[C@@H]1CCCC[C@H]1COc1ccc(C2CC2)cc1)C1CC1 (relative stereo) [Example 12, trans-N-[2-[(4-cyclopropylphenoxy)methyl]cyclohexyl]cyclopropanesulfonamide]
activity (%): 72%

O=S(=O)(N[C@H]1CCOC[C@@H]1COc1ccc(-c2ncc(Cl)s2)cc1)C1CC1 [Example 312, N-[(3R,4S)-3-{[4-(5-chloro-1,3-thiazol-2-yl)phenoxy]methyl}tetrahydro-2H-pyran-4-yl]cyclopropanesulfonamide]
activity (%): 91%

O=S(=O)(N[C@H]1CCCO[C@@H]1COc1ccc(-c2ccc(F)cn2)cc1)C1CC1 [Example 282, 1,5-anhydro-4-[(cyclopropylsulfonyl)amino]-2,3,4-trideoxy-6-β-[4-(5-fluoropyridin-2-yl)phenyl]-D-erythro-hexitol]
activity (%): 96%

CCS(=O)(=O)N[C@H]1COCC[C@@H]1COc1ccc(-c2ccc(Cl)cn2)cc1 [Example 209, N-[(3R,4S)-4-{[4-(5-chloropyridin-2-yl)phenoxy]methyl}tetrahydro-2H-pyran-3-yl]ethanesulfonamide]
activity (%): 85%

Cc1cnn(-c2ccc(OC[C@H]3COCC[C@@H]3NS(=O)(=O)C(F)(F)F)cc2)c1 (racemic) [Example 280, 1,1,1-trifluoro-N-[(3RS,4SR)-3-{[4-(4-methyl-1H-pyrazol-1-yl)phenoxy]methyl}tetrahydro-2H-pyran-4-yl]methanesulfonamide]
activity (%): 108%
